Patent US20180252704A1, “SCREENING ASSAY TO IDENTIFY IDO1 AND/OR TDO MODULATORS” (Hoffmann-La Roche Inc., priority 2015, published 2018)

Target: T1, human TDO (Homo sapiens, UniProt P48775)
T1 construct: expressed in transfected cells; pTet-On plus pTRE2hyg-TDO2
Assay: cell based fluorescence assay of TDO activity in HepG2-Tet-on-TDO *25 cells (kynurenine detected with Sensor 1), compared with the prior art biochemical TDO assay
Settings: IC50 cell-based assay versus biochemical assay
Method: Assay Methods: Cells were seeded 10,000 cells/well in the Cell Plate and incubated at 37° C. and 5% CO2 in the 95% humidified cell culture incubator. Cells were then induced with 1 μg/ml of doxycyline for 24 h to achieve full expression of IDO or TDO. Non-induced cells were used as 100% inhibition control. After washing 3 times with 60 μl of 1× HBSS (37° C.), cells were equilibrated with 60 μl of 1× HBSS in the cell culture incubator for 30 min. After an-other 3 times washing with 60 μl of 1× HBSS (37° C.), cells were treated with compounds for 10 min before adding the substrate, L-tryptophan, to a final concentration of 80 μM. The assay was carried out for 4 h at 37° C. and 5% CO2 in the cell culture incubator. The reaction was then stopped by transfer of 30 μl/well of supernatant into the Assay Plate. 10 μl/well of 30% (w/v) TCA were added and followed by application of Sensor 1 to a final concentration of 10 μM. After brief centrifugation, the fluorescence was measured at Ex: 546, Em: 586nm with a Paradigm (Molecular devices) plate reader. [table]

T1 sequence (P48775 whole entry): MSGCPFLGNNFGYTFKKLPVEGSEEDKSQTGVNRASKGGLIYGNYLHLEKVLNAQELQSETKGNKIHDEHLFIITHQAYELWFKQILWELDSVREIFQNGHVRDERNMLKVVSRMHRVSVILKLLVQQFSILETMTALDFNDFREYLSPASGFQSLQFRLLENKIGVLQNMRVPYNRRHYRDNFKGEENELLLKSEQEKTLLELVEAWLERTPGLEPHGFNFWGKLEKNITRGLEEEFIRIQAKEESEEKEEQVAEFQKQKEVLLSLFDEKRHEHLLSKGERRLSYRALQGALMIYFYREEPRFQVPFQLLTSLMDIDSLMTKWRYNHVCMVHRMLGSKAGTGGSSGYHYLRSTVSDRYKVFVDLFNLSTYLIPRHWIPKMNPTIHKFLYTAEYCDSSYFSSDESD

Compound: NS(=O)(=O)NCCNc1nonc1/C(=N/O)Nc1ccc(F)c(Br)c1 [INCB024360, (Z)-N-(3-bromo-4-fluorophenyl)-N′-hydroxy-4-(2-(sulfamoylamino)ethylamino)-1,2,5-oxadiazole-3-carboximidamide]
- right-shift of IC50 from biochemical assay to cell-based assay in TDO enzyme activity: Over 100 fold
